Source: ChEMBL document CHEMBL1201862, “PubChem BioAssay data set” (2004)
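A five-concentration, 48-hour dose response in 96-well plates underlies each endpoint, interpolated linearly between surrounding concentrations. GI50 = concentration required for 50% inhibition of growth.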 The source made the active and inactive calls. Rule as the data show it: active = GI50 up to about 1.1 µM and inactive = higher.

Columns and labels:
Assay in all cases: NCI anticancer screen, dose series, 48 h
HCT-15 = test system: HCT-15
SK-OV-3 = test system: SK-OV-3
EKVX = test system: EKVX
SNB-78 = test system: SNB-78
TK-10 = test system: TK-10
KM12 = test system: KM12
CCRF-CEM = test system: CCRF-CEM
NCI-H23 = test system: NCI-H23
HCT-116 = test system: HCT-116
HCC 2998 = test system: HCC 2998
OVCAR-3 = test system: OVCAR-3
M19-MEL = test system: M19-MEL
DLD-1 = test system: DLD-1
KM-20L2 = test system: KM-20L2
K562 = test system: K562
NCI-H226 = test system: NCI-H226
COLO 205 = test system: COLO 205
HOP-92 = test system: HOP-92
DMS-273 = test system: DMS-273
A549 = test system: A549
786-0 = test system: 786-0
OVCAR-4 = test system: OVCAR-4
M14 = test system: M14
SF-539 = test system: SF-539
SF-268 = test system: SF-268
SF-295 = test system: SF-295
DMS-114 = test system: DMS-114
HT-29 = test system: HT-29
ACHN = test system: ACHN
OVCAR-5 = test system: OVCAR-5
SR = test system: SR
NCI-H460 = test system: NCI-H460
SNB-19 = test system: SNB-19
UACC-257 = test system: UACC-257
LOX IMVI = test system: LOX IMVI
U-251 = test system: U-251
HOP-18 = test system: HOP-18
UACC-62 = test system: UACC-62
OVCAR-8 = test system: OVCAR-8
SW-620 = test system: SW-620
A498 = test system: A498
SN12C = test system: SN12C
NCI-H522 = test system: NCI-H522
SK-MEL-28 = test system: SK-MEL-28
CAKI-1 = test system: CAKI-1
MOLT-4 = test system: MOLT-4
RXF 393 = test system: RXF 393
UO-31 = test system: UO-31
HL-60 = test system: HL-60
SNB-75 = test system: SNB-75
RPMI-8226 = test system: RPMI-8226
SK-MEL-2 = test system: SK-MEL-2
SK-MEL-5 = test system: SK-MEL-5
LXFL 529 = test system: LXFL 529
Malme-3M = test system: Malme-3M
HOP-62 = test system: HOP-62
IGROV-1 = test system: IGROV-1

## Nc1c(-c2ccccc2-c2c(N)[n+]([O-])c3ccccc3[n+]2[O-])[n+]([O-])c2ccccc2[n+]1[O-]
HCT-15
  GI50: 5.28 µM
SK-OV-3
  GI50: 22.9 µM (inactive)
EKVX
  GI50: 5.37 µM (inactive)
SNB-78
  GI50: 71.8 µM (inactive)
TK-10
  GI50: 33.7 µM (inactive)
KM12
  GI50: 8.32 µM (inactive)
CCRF-CEM
  GI50: 2.49 µM (inactive)
NCI-H23
  GI50: 15.6 µM (inactive)
HCT-116
  GI50: 6.71 µM (inactive)
HCC 2998
  GI50: 22 µM (inactive)
OVCAR-3
  GI50: 7.45 µM (inactive)
M19-MEL
  GI50: 8.41 µM (inactive)
DLD-1
  GI50: 4.63 µM (inactive)
KM-20L2
  GI50: 4.33 µM (inactive)
K562
  GI50: 5.74 µM (inactive)
NCI-H226
  GI50: 19.5 µM (inactive)
COLO 205
  GI50: 4.69 µM (inactive)
HOP-92
  GI50: > 100 µM (inactive)
DMS-273
  GI50: 4.66 µM (inactive)
A549
  GI50: 11.4 µM (inactive)
786-0
  GI50: 12 µM (inactive)
OVCAR-4
  GI50: 4.89 µM (inactive)
M14
  GI50: 12.2 µM (inactive)
SF-539
  GI50: 17.5 µM (inactive)
SF-268
  GI50: 3.16 µM (inactive)
SF-295
  GI50: 12.9 µM (inactive)
DMS-114
  GI50: 3.36 µM (inactive)
HT-29
  GI50: 6.9 µM (inactive)
ACHN
  GI50: 8.32 µM (inactive)
OVCAR-5
  GI50: 64.6 µM (inactive)
SR
  GI50: 4.3 µM (inactive)
NCI-H460
  GI50: 2.51 µM (inactive)
SNB-19
  GI50: 7.91 µM (inactive)
UACC-257
  GI50: 7.45 µM (inactive)
LOX IMVI
  GI50: 8.83 µM (inactive)
U-251
  GI50: 5.46 µM (inactive)
HOP-18
  GI50: 7.71 µM (inactive)
UACC-62
  GI50: 3.7 µM (inactive)
OVCAR-8
  GI50: 3.7 µM (inactive)
SW-620
  GI50: 8.45 µM (inactive)
A498
  GI50: 20.8 µM (inactive)
SN12C
  GI50: 6.17 µM (inactive)
NCI-H522
  GI50: 2.06 µM (inactive)
SK-MEL-28
  GI50: 23 µM (inactive)
CAKI-1
  GI50: 33.5 µM (inactive)
MOLT-4
  GI50: 2.1 µM (inactive)
RXF 393
  GI50: 30.3 µM (inactive)
UO-31
  GI50: 10 µM (inactive)
HL-60
  GI50: 3.69 µM (inactive)
SNB-75
  GI50: 22.2 µM (inactive)
RPMI-8226
  GI50: 4.73 µM (inactive)
SK-MEL-2
  GI50: 34.8 µM (inactive)
SK-MEL-5
  GI50: 10.7 µM (inactive)
LXFL 529
  GI50: 6.19 µM (inactive)
Malme-3M
  GI50: 35 µM (inactive)

## O=[N+]([O-])CCc1cccc([N+](=O)[O-])c1
HCT-15
  GI50: > 100 µM
EKVX
  GI50: > 100 µM (inactive)
SNB-78
  GI50: > 100 µM (inactive)
TK-10
  GI50: > 100 µM (inactive)
KM12
  GI50: > 100 µM (inactive)
CCRF-CEM
  GI50: > 100 µM (inactive)
NCI-H23
  GI50: > 100 µM (inactive)
HCT-116
  GI50: > 100 µM (inactive)
HCC 2998
  GI50: > 100 µM (inactive)
OVCAR-3
  GI50: > 100 µM (inactive)
M19-MEL
  GI50: > 100 µM (inactive)
DLD-1
  GI50: > 100 µM (inactive)
KM-20L2
  GI50: > 100 µM (inactive)
K562
  GI50: > 100 µM (inactive)
NCI-H226
  GI50: > 100 µM (inactive)
COLO 205
  GI50: > 100 µM (inactive)
HOP-92
  GI50: > 100 µM (inactive)
DMS-273
  GI50: > 100 µM (inactive)
A549
  GI50: > 100 µM (inactive)
786-0
  GI50: > 100 µM (inactive)
OVCAR-4
  GI50: > 100 µM (inactive)
M14
  GI50: > 100 µM (inactive)
SF-539
  GI50: > 100 µM (inactive)
SF-268
  GI50: > 100 µM (inactive)
SF-295
  GI50: > 100 µM (inactive)
DMS-114
  GI50: > 100 µM (inactive)
HT-29
  GI50: > 100 µM (inactive)
ACHN
  GI50: > 100 µM (inactive)
OVCAR-5
  GI50: > 100 µM (inactive)
SR
  GI50: > 100 µM (inactive)
NCI-H460
  GI50: > 100 µM (inactive)
SNB-19
  GI50: > 100 µM (inactive)
UACC-257
  GI50: > 100 µM (inactive)
LOX IMVI
  GI50: > 100 µM (inactive)
U-251
  GI50: > 100 µM (inactive)
HOP-62
  GI50: > 100 µM (inactive)
HOP-18
  GI50: > 100 µM (inactive)
UACC-62
  GI50: > 100 µM (inactive)
OVCAR-8
  GI50: > 100 µM (inactive)
SW-620
  GI50: 9.44 µM (inactive)
A498
  GI50: > 100 µM (inactive)
SN12C
  GI50: > 100 µM (inactive)
NCI-H522
  GI50: > 100 µM (inactive)
SK-MEL-28
  GI50: > 100 µM (inactive)
CAKI-1
  GI50: > 100 µM (inactive)
IGROV-1
  GI50: > 100 µM (inactive)
MOLT-4
  GI50: > 100 µM (inactive)
RXF 393
  GI50: > 100 µM (inactive)
UO-31
  GI50: > 100 µM (inactive)
HL-60
  GI50: > 100 µM (inactive)
SNB-75
  GI50: > 100 µM (inactive)
RPMI-8226
  GI50: > 100 µM (inactive)
SK-MEL-2
  GI50: > 100 µM (inactive)
SK-MEL-5
  GI50: > 100 µM (inactive)
LXFL 529
  GI50: > 100 µM (inactive)
Malme-3M
  GI50: > 100 µM (inactive)
